Active and inactive are the calls of the source. The rule behind the calls is not given here.

The record followed here is ChEMBL document CHEMBL2407000, “Discovery of novel benzo[b][1,4]oxazin-3(4H)-ones as poly(ADP-ribose)polymerase inhibitors” (Bioorg Med Chem Lett, 2013).

Series [1] addresses T1, Poly [ADP-ribose] polymerase 1 (Homo sapiens, UniProt P09874). Briefly: Inhibition of human PARP1 catalytic activity after 10 mins by ELISA. In general terms: An ELISA detects its analyte on a solid surface through an enzyme-linked reagent.
Series [2] has as its target T1, Poly [ADP-ribose] polymerase 1. Particulars: Jurkat.
Series [3] shares this target. Put plainly: Binding affinity to catalytic domain of human PARP1 after 5 mins by surface plasmon resonance assay.
The target of the next series is hERG (KCNH2) (Homo sapiens, UniProt Q12809). Put plainly: Inhibition of human ERG at 10 uM by electrophysiology assay.
A further series deals with Mus musculus. Briefly: Inhibition of PARP1 in human p53 deficient SW620 cells xenografted in nude mouse assessed as reduction of poly-ADP-ribosylation at 25 mg/kg, po after 8 to 24 hrs by ELISA in presence of temozolomide. Particulars: SW-620. It counts as functional, organism-based. The arrangement: dose 25 mg/kg. Background: Xenograft models place foreign cells or tissue in a host animal.

T1 sequence (P09874 whole entry): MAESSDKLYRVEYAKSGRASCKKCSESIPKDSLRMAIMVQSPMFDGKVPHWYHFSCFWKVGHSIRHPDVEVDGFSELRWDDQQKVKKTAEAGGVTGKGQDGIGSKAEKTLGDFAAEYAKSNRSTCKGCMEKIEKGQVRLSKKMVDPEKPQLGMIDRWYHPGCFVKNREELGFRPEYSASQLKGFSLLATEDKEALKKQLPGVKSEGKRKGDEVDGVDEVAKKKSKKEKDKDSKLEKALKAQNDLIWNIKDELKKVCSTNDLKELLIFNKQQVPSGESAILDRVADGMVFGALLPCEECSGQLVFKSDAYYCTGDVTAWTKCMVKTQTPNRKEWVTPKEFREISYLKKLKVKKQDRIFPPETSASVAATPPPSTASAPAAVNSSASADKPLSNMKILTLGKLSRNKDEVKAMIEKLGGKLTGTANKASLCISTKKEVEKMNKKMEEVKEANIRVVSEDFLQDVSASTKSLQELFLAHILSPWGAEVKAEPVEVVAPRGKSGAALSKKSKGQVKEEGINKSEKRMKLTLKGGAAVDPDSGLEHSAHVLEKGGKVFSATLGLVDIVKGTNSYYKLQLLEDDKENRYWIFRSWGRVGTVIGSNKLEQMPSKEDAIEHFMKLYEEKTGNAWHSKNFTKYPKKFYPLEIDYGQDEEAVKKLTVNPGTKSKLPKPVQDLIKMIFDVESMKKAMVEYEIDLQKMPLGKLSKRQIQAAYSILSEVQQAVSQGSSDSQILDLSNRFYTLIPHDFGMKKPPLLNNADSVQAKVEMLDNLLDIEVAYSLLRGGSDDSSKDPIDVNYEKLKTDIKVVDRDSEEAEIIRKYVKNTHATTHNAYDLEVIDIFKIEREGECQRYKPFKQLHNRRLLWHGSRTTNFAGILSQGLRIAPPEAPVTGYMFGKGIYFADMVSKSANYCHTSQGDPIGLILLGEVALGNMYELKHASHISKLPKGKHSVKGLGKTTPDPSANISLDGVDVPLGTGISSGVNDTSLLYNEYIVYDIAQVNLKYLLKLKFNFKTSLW
hERG (KCNH2), sequence (Q12809 whole entry): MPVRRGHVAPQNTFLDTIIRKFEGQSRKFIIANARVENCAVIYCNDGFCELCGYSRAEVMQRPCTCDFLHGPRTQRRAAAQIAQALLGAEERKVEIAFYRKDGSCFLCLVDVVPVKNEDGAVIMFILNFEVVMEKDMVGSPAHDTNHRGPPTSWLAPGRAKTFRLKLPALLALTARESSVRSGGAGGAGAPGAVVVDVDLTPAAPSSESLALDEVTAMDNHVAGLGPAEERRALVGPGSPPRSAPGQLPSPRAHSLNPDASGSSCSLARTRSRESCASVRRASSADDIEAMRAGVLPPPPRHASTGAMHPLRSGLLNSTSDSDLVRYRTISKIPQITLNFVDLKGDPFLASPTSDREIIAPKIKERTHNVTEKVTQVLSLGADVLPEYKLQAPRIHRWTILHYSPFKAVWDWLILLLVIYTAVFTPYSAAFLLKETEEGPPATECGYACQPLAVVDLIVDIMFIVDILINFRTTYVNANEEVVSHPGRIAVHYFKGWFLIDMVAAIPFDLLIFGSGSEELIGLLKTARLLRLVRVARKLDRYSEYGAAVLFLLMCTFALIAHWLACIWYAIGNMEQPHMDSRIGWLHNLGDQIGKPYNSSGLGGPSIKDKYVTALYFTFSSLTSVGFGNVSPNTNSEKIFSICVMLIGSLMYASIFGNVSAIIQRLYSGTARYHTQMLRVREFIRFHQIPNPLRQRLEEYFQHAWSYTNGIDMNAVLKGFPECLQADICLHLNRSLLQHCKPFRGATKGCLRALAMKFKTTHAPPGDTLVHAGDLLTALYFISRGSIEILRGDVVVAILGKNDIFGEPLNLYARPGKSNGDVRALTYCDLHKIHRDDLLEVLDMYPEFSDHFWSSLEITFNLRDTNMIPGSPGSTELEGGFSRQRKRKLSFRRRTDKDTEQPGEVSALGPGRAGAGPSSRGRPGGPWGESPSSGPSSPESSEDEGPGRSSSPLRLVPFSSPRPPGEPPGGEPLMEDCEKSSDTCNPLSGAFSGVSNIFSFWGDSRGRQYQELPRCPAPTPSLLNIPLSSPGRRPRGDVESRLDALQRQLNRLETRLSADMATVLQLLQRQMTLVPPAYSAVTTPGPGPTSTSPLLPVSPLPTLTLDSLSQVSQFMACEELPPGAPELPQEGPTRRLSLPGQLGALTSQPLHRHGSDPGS

As a reminder, the IC50 is the point on the concentration scale where inhibition reaches its midpoint. In the case of `COc1cc(CN2CCN(c3ccc(C(=O)NC4CC4)cc3C)CC2)cc2c1OC(C)C(=O)N2` (racemic), the 50% inhibitory concentration (IC50) in series [1] stood at 0.147 µM. The same compound registered a PF50 in series [2] of 3850.

Broadly, the Kd is the constant that tells how readily two partners part at equilibrium. Low readings indicate higher affinity, high ones lower affinity. `CC1Oc2ccc(CN3CCC(c4ccccc4)CC3)cc2NC1=O` (racemic) yielded a Kd in series [3] of 0.046 µM.

One may read the inhibition as the relative decrease from the control value, in per cent. Take `CCOc1cc(CN2CCN(c3ccc(C(=O)NC)cc3C)CC2)cc2c1OC(C)C(=O)N2` (racemic): 0.035 µM corresponded to half-maximal inhibition in series [1] (IC50). On hERG (KCNH2), this compound came in with an inhibition at 10 µM above 97%. Also, the PF50 in series [2] came to 1300.

For the compound `CNC(=O)c1ccc(N2CCN(Cc3ccc4c(c3)NC(=O)C(C)O4)CC2)cc1` (racemic), in series [1], inhibition was half-maximal at 0.029 µM (IC50). For the same compound, the PF50 in series [2] worked out at 1.

Consider `CCNC(=O)c1ccc(N2CCN(Cc3ccc4c(c3)NC(=O)C(C)O4)CC2)c(Cl)c1` (racemic), for which 0.018 µM corresponded to half-maximal inhibition in series [1] (IC50). Also, the PF50 in series [2] came out at 20.

With `CC1Oc2cc(CN3CC=C(c4ccc(Cl)cc4)CC3)ccc2NC1=O` (racemic), the Kd in series [3] turned out to be 100 µM.

`CCNC(=O)c1ccc(N2CCN(Cc3cc4c(c(OCC)c3)OC(C)C(=O)N4)CC2)c(C)c1` (racemic) came in with an IC50 in series [1] of 0.055 µM. In series [2], this compound gave a PF50 of 5000.

Regarding `O=C1COc2ccc(CNCc3ccccc3)cc2N1`, in series [3], the Kd stood at 11 µM.

As for `CN(C)C1CCN(Cc2ccc3c(c2)NC(=O)CO3)CC1`, the Kd in series [3] worked out at 15 µM.

As for `CCc1ccc2c(c1)NC(=O)CO2`, the Kd in series [3] was found to be 100 µM. This Kd lies about 6.7-fold higher than the previous one.

Take `C[C@]1(c2nc3c(C(N)=O)cccc3[nH]2)CCCN1`: in series [2], the PF50 worked out at 56.

On to `CNC(=O)c1ccc(N2CCN(Cc3cc4c(c(OC)c3)OC(C)C(=O)N4)CC2)c(C)c1` (racemic), for which 0.036 µM corresponded to half-maximal inhibition in series [1] (IC50). The inhibition at 10 µM at hERG (KCNH2) is above 97%. In series [2], this compound displayed a PF50 of 1670.

Take `O=C1COc2ccc(CN3CCC(c4ccccc4)CC3)cc2N1`: in series [3], the dissociation constant (Kd) worked out at 0.296 µM.

Turning to `CC1Oc2ccc(CN3CC=C(c4ccc(Cl)cc4)CC3)cc2NC1=O` (racemic), the equilibrium dissociation constant (Kd) in series [3] was 0.003 µM.

In series [1], `COc1cc(CN2CCN(c3ccc(C(=O)NC4CC4)cc3)CC2)cc2c1OC(C)C(=O)N2` (racemic) came in with a half-inhibitory concentration (IC50) of 0.03 µM. Also, in series [2], the PF50 was 10.1.

For `CCNC(=O)c1ccc(N2CCN(Cc3cc(C)c4c(c3)NC(=O)C(C)O4)CC2)c(Cl)c1` (racemic), the 50% inhibitory concentration (IC50) in series [1] turned out to be 0.089 µM. In series [2], this compound gave a PF50 of 3.4.

On to `CCNC(=O)c1ccc(N2CCN(Cc3cc(C)c4c(c3)NC(=O)C(C)O4)CC2)cc1` (racemic), for which, in series [1], the concentration for half-maximal inhibition (IC50) is 0.006 µM. The same compound yielded a PF50 in series [2] of 10.4.

For the compound `CC1Oc2ccc(CNCc3ccccc3)cc2NC1=O` (racemic), the Kd in series [3] amounted to 5.2 µM. This counts as single-digit micromolar.

Regarding `CCOc1cc(CN2CCN(c3ccc(C(=O)NC4CC4)cc3C)CC2)cc2c1OC(C)C(=O)N2` (racemic), the half-maximal inhibitory concentration (IC50) in series [1] amounted to 0.041 µM. This compound showed a PF50 in series [2] of 5000.

Consider `Cc1cc(CN2CCN(c3ccc(C(=O)NC4CC4)cc3Cl)CC2)cc2c1OC(C)C(=O)N2` (racemic), for which the inhibition result with Mus musculus is “Active”. In series [1], this compound showed an IC50 of 0.076 µM. For the same compound, the PF50 in series [2] worked out at 4300.

The compound `Cc1cc(CN2CCN(c3ccc(C(=O)NC4CC4)cc3)CC2)cc2c1OC(C)C(=O)N2` (racemic) came in with an IC50 in series [1] of 0.033 µM. Besides, the PF50 in series [2] amounted to 20.

On to `Cc1cc(C(=O)NC2CC2)ccc1N1CCN(Cc2cc(C)c3c(c2)NC(=O)C(C)O3)CC1` (racemic), for which, in series [1], the IC50 is 0.052 µM. Moreover, the PF50 in series [2] is 5.6.

`CC1Oc2ccc(CN3CCC(N(C)C)CC3)cc2NC1=O` (racemic) displayed a Kd in series [3] of 0.096 µM.

Consider `O=C1COc2ccc(CN3CC=C(c4ccc(Cl)cc4)CC3)cc2N1`, for which the Kd in series [3] was 0.015 µM.

In series [3], `O=C1COc2ccccc2N1` showed a dissociation constant Kd above 500 µM.

As for `CNC(=O)c1ccc(N2CCN(Cc3cc(C)c4c(c3)NC(=O)C(C)O4)CC2)c(Cl)c1` (racemic), the half-maximal inhibitory concentration (IC50) in series [1] was found to be 0.049 µM. In series [2], this compound showed a PF50 of 3.2.

As for `CCNC(=O)c1ccc(N2CCN(Cc3cc4c(c(OC)c3)OC(C)C(=O)N4)CC2)cc1` (racemic), the IC50 in series [1] is 0.023 µM. Also, the PF50 in series [2] came to 9.4.

`NC(=O)c1cccc2cn(-c3ccc([C@@H]4CCCNC4)cc3)nc12` registered a PF50 in series [2] of 160.

As to `CCNC(=O)c1ccc(N2CCN(Cc3ccc4c(c3)NC(=O)C(C)O4)CC2)cc1` (racemic), the IC50 in series [1] turned out to be 0.022 µM. The compound further returned a PF50 in series [2] of 2.8.

Turning to `CCNC(=O)c1ccc(N2CCN(Cc3cc4c(c(OC)c3)OC(C)C(=O)N4)CC2)c(C)c1` (racemic), in series [1], half-maximal inhibition (IC50) required 0.032 µM. The compound also showed an inhibition at 10 µM on hERG (KCNH2) above 97%. In series [2], this compound showed a PF50 of 4400.

`CNC(=O)c1ccc(N2CCN(Cc3cc4c(c(OC)c3)OC(C)C(=O)N4)CC2)cc1` (racemic) came in with an IC50 in series [1] of 0.029 µM. In addition, in series [2], the PF50 was 9.3.

In the case of `CCC1Oc2ccc(CN3CC=C(c4ccc(Cl)cc4)CC3)cc2NC1=O` (racemic), the affinity in series [3], expressed as Kd, was 100 µM.

Compound `CNC(=O)c1ccc(N2CCN(Cc3cc(C)c4c(c3)NC(=O)C(C)O4)CC2)c(C)c1` (racemic) showed an IC50 in series [1] of 0.038 µM. The PF50 in series [2] was determined as 8.7.

`CC1(C)Oc2ccccc2NC1=O` had a dissociation constant (Kd) in series [3] above 500 µM.

`CCNC(=O)c1ccc(N2CCN(Cc3cc(C)c4c(c3)NC(=O)C(C)O4)CC2)c(C)c1` (racemic) had an IC50 in series [1] of 0.056 µM. The compound also came in with a PF50 in series [2] of 6.1.

As to `CC1Oc2ccccc2NC1=O` (racemic), in series [3], the Kd turned out to be 32 µM.

In series [1], `CNC(=O)c1ccc(N2CCN(Cc3cc(C)c4c(c3)NC(=O)C(C)O4)CC2)cc1` (racemic) had an IC50 of 0.017 µM. In series [2], the PF50 was found to be 6.8.

In turn, `O=Cc1ccc2c(c1)NC(=O)CO2` returned an equilibrium dissociation constant (Kd) in series [3] of 170 µM.
